Here are results for 6 molecules from patent US8987424B2, “CA6 antigen-specific cytotoxic conjugate and methods of using the same” (ImmunoGen, Inc., priority 2003, dated 2015).

One data set deals with BT-20 cells. The experiment in a line: Clonogenic assay. In kind it is cell-based. To be noted: Homo sapiens, 72 h exposure to free maytansine. As to the method:
(§1) The cytotoxicity of maytansinoid conjugated muDS6 antibody was examined using 2 different assay formats in various DS6 positive cell lines. Clonogenic assays were conducted where cells (1000-2500 cells/well) were plated on 6-well plates in 2 ml of conjugate diluted in culture media. […] The wells were washed with PBS and the colonies were stained with a 1% w/v crystal violet/10% v/v formaldehyde/PBS solution. Unbound stain was then washed thoroughly from the wells with distilled water, and the plates were allowed to dry. The colonies were counted using a Leica StereoZoom 4 dissecting microscope.
(§2) Plating efficiency (PE) was calculated as the number of colonies/number of cells plated. Surviving fraction was calculated as PE of treated cells/PE of non-treated cells. The IC50 concentration was determined by graphing the surviving fraction of cells vs. the molar concentration of the conjugate.

Another data set has as its system BT-483 cells. The experiment in a line: Clonogenic assay. Format: cell-based. To be noted: Homo sapiens, 72 h exposure to free maytansine. As to the method: as §1, §2
A further data set concerns Caov-3 cells. Nature of the data set: Clonogenic assay. Format: cell-based. The note with it: Homo sapiens, 72 h exposure to free maytansine. As to the method:
as §1, §2

A further data set has as its system Caov-4 cells. Nature of the data set: Clonogenic assay. Format: cell-based. The note with it: Homo sapiens, 72 h exposure to free maytansine. On the procedure:
as §1, §2

The next data set relates to HPAC cells. The experiment in a line: Clonogenic assay. In kind it is cell-based. To be noted: Homo sapiens, 72 h exposure to free maytansine. On the procedure: as §1, §2
A further data set has as its system HPAF-II cells. Nature of the data set: Clonogenic assay. In kind it is cell-based. The note with it: Homo sapiens, 72 h exposure to free maytansine. On the procedure:
as §1, §2

In the next data set the test system is Hs766T cells. The experiment in a line: Clonogenic assay. Format: cell-based. The note with it: Homo sapiens, 72 h exposure to free maytansine. On the procedure:
as §1, §2

The subject of data set [1] is KB cells. The experiment in a line: Clonogenic assay. To be noted: Homo sapiens, 72 h exposure to free maytansine. Format: cell-based. As to the method:
as §1, §2

The subject of a further data set is T-47D cells. The experiment in a line: Clonogenic assay. To be noted: Homo sapiens, T47D, 72 h exposure to free maytansine. In kind it is cell-based. On the procedure: as §1, §2
The test system of the next data set is TOV-21G cells. The experiment in a line: Clonogenic assay. In kind it is cell-based. The note with it: Homo sapiens, TOV21G, 72 h exposure to free maytansine. As to the method:
as §1, §2

Data set [2] relates to WISH cells. The experiment in a line: Clonogenic assay. The note with it: Homo sapiens, 72 h exposure to free maytansine. Format: cell-based. As to the method: as §1, §2
In the next data set the test system is ZR-75-1 cells. Nature of the data set: Clonogenic assay. In kind it is cell-based. The note with it: Homo sapiens, 72 h exposure to free maytansine. On the procedure:
as §1, §2

The subject of data set [3] is HeLa cells. The experiment in a line: Clonogenic assay. Format: cell-based, human. As to the method:
as §1, §2

A further data set relates to OVCAR5 cells. The experiment in a line: Clonogenic assay. In kind it is cell-based, human. As to the method: as §1, §2
For data set [4] the following is noted: mice, single intravenous dose of 12.5 μg/kg; cited from earlier work.
Data set [5] has as its system HeLa cells. The experiment in a line: Flow cytometry binding assay. Set-up: species or system human. To be noted: HeLa cells, versus muDS6 antibody. As to the method: (§3) Cells were maintained in a 37° C., 5% CO2 humidified incubator.
(§4) Cells ([…]) were incubated, on ice for 3-4 h, with serially diluted concentrations of the DS6 antibody prepared in FACS buffer (2% goat serum, RPMI) into 96-well plates. The cells were spun down in a table top centrifuge at 1500 rpm for 5 min at 4° C. After removing the media, the wells were then refilled with 150 μl of FACS buffer. The wash step was then repeated. FITC-labeled goat anti-mouse IgG (Jackson Immunoresearch) was diluted 1:100 to FACS buffer and incubated with the cells for 1 h on ice. The plate was covered in foil to prevent photobleaching of the signal. After two washes, the cells were fixed with 1% formaldehyde and analyzed on a flow cytometer.

Data set [6] deals with KB cells. The experiment in a line: Flow cytometry binding assay. The note with it: KB cells, versus unmodified antibody. Also on record: species or system human. As to the method:
as §3, §4
The affinity of the purified huIgG was compared with muDS6 by flow cytometry. In the first set of experiments direct binding to a CA6-expressing cell line, KB, was measured. […] To confirm that the huDS6 versions retain the affinity of muDS6, competitive binding experiments were conducted. The advantage of this format is that the same detection system is used for both murine and human antibodies; that is biotin-muDS6/streptavidin-DTAF.
(§5) The binding was conducted essentially as described for FIG. 20 except that KB cells were used rather than CaOv-3 cells.
In general terms: A flow cytometer gives signals particle by particle.

The next data set concerns HPAC xenografts. The experiment in a line: HPAC pancreatic cancer model with humanized DS6 conjugate. In kind it is in vivo, mice. As to the method:
The in vivo activity of huDS6v1.01-DM4 was tested on the HPAC pancreatic model. HPAC cells were inoculated on day 0, and immunoconjugate treatments were given on day 13. PBS control animals were euthanized once tumor volumes exceeded 1000 mm^3. The conjugate was given at a dose of either 200 μg/kg or 600 μg/kg DM4, corresponding to an antibody concentration 15 mg/kg and 45 mg/kg, respectively. Tumor volume (FIG. 30A) and body weight (FIG. 30B) of the mice were monitored during the course of the study.

Data set [7] deals with WISH cells. Nature of the data set: MTT cell viability assay. Format: cell-based, human. On the procedure: In the MTT assay, cells were seeded in 96-well plates at a density of 1000-5000 cells/well. The cells were plated with serial dilutions of either naked muDS6 or muDS6-DM1 immunoconjugate in 200 μl of culture media. The samples were run in triplicate. The cells and antibody/conjugate mixtures were then incubated for 2-7 d, at which time cell viability was assessed by an MTT ([3(4,5-dimethylthiazol-2-yl)-2,5-diphenyl tetrazolium bromide)] assay. MTT (50 μg/well) was added to the culture supernatant and allowed to incubate for 3-4 h at 37° C. The media was removed and the MTT formazan was solubilized in DMSO (175 μl/well). The absorbance at 540-545 nm was measured. […] The wells with the highest concentrations of conjugate contained no viable cells as compared to naked antibody which had no effect (FIGS. 21 and 24).
as §5

For data set [8] the following is noted: clinical trial patients; cited from earlier work.

Residue numbers refer to the chain shown, from its start. Entries after “also recorded” stand apart in the source; their conditions may differ. Some results are limits rather than exact numbers.

As for `COc1cc2cc(c1Cl)N(C)C(=O)C[C@H](OC(=O)[C@H](C)N(C)C(C)=O)[C@]1(C)O[C@H]1[C@H](C)[C@@H]1C[C@@](O)(NC(=O)O1)[C@H](OC)/C=C/C=C(\C)C2` [Maytansine, maytansine], the IC50 with BT-20 cells was 0.35 nM; in the data set on BT-483 cells, 0.15 nM; with Caov-3 cells it was 0.032 nM; with Caov-4 cells, 0.6 nM; in the data set on HPAC cells it was 0.055 nM; with HPAF-II cells, 0.6 nM. Moreover, the IC50 in the data set on Hs766T cells was above 3 nM; with KB cells [1] it was 0.03 nM; with T-47D cells, 0.12 nM; with TOV-21G cells it was 0.048 nM; with WISH cells [2] it was 0.09 nM; with ZR-75-1 cells it was 0.1 nM. The IC50 in the data set on HeLa cells [3] (Homo sapiens, HeLa, 72 h exposure to free maytansine) is 0.1 nM; in the data set with OVCAR5 cells (Homo sapiens, OVCAR-5, OVCAR5, 72 h exposure to free maytansine), 0.32 nM. For the same molecule, the “fold less maytansine sensitive” value is on record as 2-7 fold in the data set with HeLa cells [3] (HeLa versus TOV-21G and HPAC); 2-7 fold with OVCAR5 cells (OVCAR5 versus TOV-21G and HPAC).

For the molecule `COc1c(O)c2c(c3cc(C(=O)N4CCc5c4c(O)c(OC)c4[nH]c(C(=O)N6CC7CC78C6=CC(=O)c6[nH]cc(C)c68)cc54)[nH]c13)CCN2C(N)=O` (centres unmarked) [CC-1065], in data set [4], the “day of mortality from delayed hepatotoxicity” value was 50 days.

B1: DS6-MM1-202 (conjugate)
VH: QAYLQQSGAELVRSGASVKMSCKASGYTFTSYNMHWVKQTPGQGLEWIGYIYPGNGATNYNQKFKGKATLTADPSSSTAYMQISSLTSEDSAVYFCARGDSVPFAYWGQGTLVTVSA
VL: QIVLTQSPAIMSASPGEKVTITCSAHSSVSFMHWFQQKPGTSPKLWIYSTSSLASGVPARFGGSGSGTSYSLTISRMEAEDAATYYCQQRSSFPLTFGAGTKLELKR
As for B1, the “effect of conjugation on binding activity” value in the data set with HeLa cells [5] is recorded as “retains binding activity”.

B2: huDS6v1.01-DM4 (conjugate)
VH: B1 VH with Y3Q, Q5V, L11V, R13K, S14P, K65Q, P74T
VL: B1 VL with Q1E, I10T, K18R, R76S
In the case of B2, in the data set with KB cells [6], the “effect of conjugation on affinity/avidity” value was “essentially no loss of affinity; also recorded: little effect on the avidity”. Further, the “toxicity / body weight” value in the data set with HPAC xenografts (200 μg/kg DM4) is “lack of body weight loss; also recorded: not toxic”. Also, in the data set on HPAC xenografts (200 μg/kg DM4, treatment on day 13), the anti-tumor activity result is given as “all mice achieving complete tumor regression; also recorded: potent anti-tumor activity”.

B3: huDS6v1.01: humanized (resurfaced) DS6 version 1.01, heavy chain with the human 28E4 T73 (antibody, V domains shown)
VH: B1 VH with Y3Q, Q5V, L11V, R13K, S14P, K65Q, P74T
VL: B1 VL with Q1E, I10T, K18R, R76S
Consider B3, for which the “cytotoxic activity of unconjugated antibody” value in the data set on WISH cells [7] was “no cytotoxic activity”.

B4: cantuzumab mertansine: huC242-DM1 antibody-maytansinoid conjugate tested in a clinical trial (conjugate, chains of the INN, looked up)
VH: QVQLVQSGAEVKKPGETVKISCKASDYTFTYYGMNWVKQAPGQGLKWMGWIDTTTGEPTYAQKFQGRIAFSLETSASTAYLQIKSLKSEDTATYFCARRGPYNWYFDVWGQGTTVTVSS
VL: DIVMTQSPLSVPVTPGEPVSISCRSSKSLLHSNGNTYLYWFLQRPGQSPQLLIYRMSNLVSGVPDRFSGSGSGTAFTLRISRVEAEDVGVYYCLQHLEYPFTFGPGTKLELK
modifications: DM1 maytansinoid conjugate
notes: huC242-DM1 antibody-maytansinoid conjugate tested in a clinical trial
On to B4, for which, in [8], the “correlation of pretreatment shed CanAg levels with pharmacokinetics of antibody clearance” value is “no correlation”.

The IC50 is the midpoint of a concentration-inhibition curve.
